Results reported in patent US4824834A, “Pyrazolotriazine compounds” (Otsuka Pharmaceutical Company, Limited, priority 1986, dated 1989).
pIC50: −log10 of the molar value.

Legend:
uric acid in serum = experiment: Lowering effect of test compound on the level of uric acid in serum (in vivo, oral administration); set-up: species or system mouse (normal male ICR mice); settings: Mus musculus, 4 hours after administration, male ICR mice, suspended in 0.5% CMC-Na, read-out: in vivo Lowering rate (%) of uric acid in serum (in 4 hours)
Experimental: Experiment 2 (In Vivo: Oral Administration)
(1) Animals, Method of Administration and Sampling of Serum
Normal male ICR mice (weighting about 30 g), were provided normal diet and tap water ad libitum. A test compound suspended in 0.5% CMC-Na was administered orally to the mice (each group: 6 mice) in a dose of 5 mg/kg.
(2) Measurement of Amount of Uric Acid in Serum
To the serum (200 μl) was added 10% perchloric acid (100 μl), and the mixture was centrifuged. To the supernatant fluid (100 μl) was added 0.2M Na2 HPO4 (200 μl), and the mixture (20 μl) was analyzed by HPLC to measure the amount of uric acid. The HPLC was carried out under the following conditions.
Column: Cosmosil packed column (.phi. 4.6 mm×150 mm, 5C18 -300)
(§1) Eluting solution: 10 mM phosphate buffer (pH 6.0)
(§2) Retention time: 2.4 minutes (uric acid)
(3) Lowering Effect of Test Compound on the Level of Uric Acid in Serum
The lowering rate of uric acid in serum was calculated by the following equation. [formula]

Xanthine oxidase = molecular target: T1, Xanthine oxidase (Mus musculus, UniProt Q00519); experiment: Xanthine oxidase inhibition (in vitro), mouse small intestine xanthine oxidase solution, HPLC of uric acid; format: biochemical, mouse (ICR strain mice; settings: xanthine substrate, incubated at 37° C. for 5 minutes; HPLC UV 292 nm
T1 construct: The small intestine was homogenized in 4-fold volume of cooled phosphate buffered saline solution (PBS) and then centrifuged; from tissue; host or cells: small intestine of ICR strain mice; dialysed supernatant of a 105,000 g centrifugation
Experimental: (1) Preparation of Xanthine Oxidase Solution
ICR strain mice were decapitated and the small intestine of each mouse was rapidly perfused with cooled physiological saline solution and removed. The small intestine was homogenized in 4-fold volume of cooled phosphate buffered saline solution (PBS) and then centrifuged at 105,000 g for 60 minutes. The supernatant fluid was dialyzed overnight against PBS. The dialyzed solution thus prepared was stored at -20° C. until used.
(2) Preparation of the Solution Containing the Present Compound
The compound of this invention was dissolved in DMSO (200 μl) and 2N NaOH (100 μl), and then PBS was added to prepare a solution (25 ml) containing 10^-3 M of the compound of this invention. This solution was diluted with PBS to prepare solutions containing the compound in the concentration of 10^-4, 10^-5, 10^-6, 10^-7, 10^-8, 10^-9, 10^-10, and 10^-11 M, respectively.
(3) Method for the Measurement
The assay mixture, consisted of the composition mentioned below, was incubated at 37° C. for 5 minutes. The reaction was stopped by heating in boiling water for one minute. Twenty microliters of the supernatant was analyzed by high performance liquid chromatography (HPLC) under the conditions mentioned below.
Xanthine oxidase solution (diluted in 4-folds with PBS): 200 μl
Solution containing the present compound: 200 μl
Column: osmosil packed column (.phi. 4. mm×150 mm, 5C18×300)
as §1, §2
(4) Percent Inhibition of the Compound Against Xanthine Oxidase
The percent inhibition was calculated by the following equation. [formula]
As to each of the solutions containing the present compound as prepared in the above (2), the percent inhibition was calculted, and IC50 values were obtained from a plot of the percent inhibition against the log of the concentration of the compound of this invention.

T1 sequence (Q00519 whole entry): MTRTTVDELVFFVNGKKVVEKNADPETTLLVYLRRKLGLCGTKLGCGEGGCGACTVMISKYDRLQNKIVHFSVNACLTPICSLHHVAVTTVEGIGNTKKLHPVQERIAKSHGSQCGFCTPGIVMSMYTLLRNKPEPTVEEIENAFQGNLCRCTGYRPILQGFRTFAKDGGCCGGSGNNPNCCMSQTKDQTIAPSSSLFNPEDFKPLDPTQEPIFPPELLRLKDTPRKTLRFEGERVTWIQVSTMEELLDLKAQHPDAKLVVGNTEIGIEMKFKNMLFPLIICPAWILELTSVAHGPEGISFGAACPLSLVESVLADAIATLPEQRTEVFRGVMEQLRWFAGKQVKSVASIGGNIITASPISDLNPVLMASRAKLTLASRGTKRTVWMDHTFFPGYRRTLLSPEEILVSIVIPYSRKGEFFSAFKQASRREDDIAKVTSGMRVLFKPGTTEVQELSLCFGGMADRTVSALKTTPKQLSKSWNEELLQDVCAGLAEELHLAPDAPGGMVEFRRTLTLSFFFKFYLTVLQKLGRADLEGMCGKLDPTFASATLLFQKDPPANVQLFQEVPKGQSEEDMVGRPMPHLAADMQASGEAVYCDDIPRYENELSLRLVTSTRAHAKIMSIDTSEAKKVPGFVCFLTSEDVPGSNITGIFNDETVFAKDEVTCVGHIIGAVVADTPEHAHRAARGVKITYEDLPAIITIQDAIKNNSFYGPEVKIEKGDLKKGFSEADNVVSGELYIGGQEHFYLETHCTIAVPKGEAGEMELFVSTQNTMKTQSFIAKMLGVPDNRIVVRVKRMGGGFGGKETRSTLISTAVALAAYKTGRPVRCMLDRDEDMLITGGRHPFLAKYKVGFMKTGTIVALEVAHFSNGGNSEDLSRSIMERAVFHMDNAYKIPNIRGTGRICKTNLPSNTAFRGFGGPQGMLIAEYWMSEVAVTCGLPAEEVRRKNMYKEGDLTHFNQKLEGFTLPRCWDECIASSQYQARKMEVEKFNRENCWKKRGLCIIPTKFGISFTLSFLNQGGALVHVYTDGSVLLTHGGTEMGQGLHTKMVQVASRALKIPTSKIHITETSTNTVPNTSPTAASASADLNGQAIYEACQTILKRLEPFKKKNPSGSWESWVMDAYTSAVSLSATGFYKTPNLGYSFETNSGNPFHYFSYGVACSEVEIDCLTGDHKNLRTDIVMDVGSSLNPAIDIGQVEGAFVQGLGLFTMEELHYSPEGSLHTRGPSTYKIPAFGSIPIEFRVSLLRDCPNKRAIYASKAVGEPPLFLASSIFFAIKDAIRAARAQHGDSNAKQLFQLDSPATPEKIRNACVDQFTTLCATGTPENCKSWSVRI

CSc1ccc(-c2cnn3c(O)ncnc23)cc1Br [Example 146, 8-(3-Bromo-4-methylthiophenyl)-4-hydroxypyrazolo[1,5-a]-1,3,5-triazine] gave an inhibition in vivo at 5 mg/kg (uric acid in serum) of 47% and a pIC50 (Xanthine oxidase) of 8.57.

Compound [O-][S+](c1ccccc1)c1ccc(-c2cnn3c(O)ncnc23)cc1 (centres unmarked) [Example 170, 4-Hydroxy-8-(4-phenylsulfinylphenyl)pyrazolo[1,5-a]-1,3,5-triazine] has an inhibition in vivo at 5 mg/kg (uric acid in serum) of 57.2% and a pIC50 (Xanthine oxidase) of 8.10.

Compound Cc1cc(-c2cnn3c(O)ncnc23)ccc1[S+]([O-])c1ccccc1 (centres unmarked) [Example 171, 4-Hydroxy-8-(3-methyl-4-phenylsulfinylphenyl)pyrazolo[1,5-a]-1,3,5-triazine] has an inhibition in vivo at 5 mg/kg (uric acid in serum) of 73.6% and a pIC50 (Xanthine oxidase) of 8.62.

COc1cc(-c2cnn3c(O)ncnc23)ccc1[S+]([O-])c1ccccc1 (centres unmarked) [Example 187, 4-Hydroxy-8-(3-methoxy-4-phenylsulfinylphenyl)pyrazolo[1,5-a]-1,3,5-triazine] gave an inhibition in vivo at 5 mg/kg (uric acid in serum) of 63.9% and a pIC50 (Xanthine oxidase) of 7.60.
